According to patent US8153385B2, “Target protein and target gene in drug designing and screening method” (Reverse Proteomics Research Institute Co., Ltd., priority 2004, dated 2012):
Counter-ions that a name gives are not always drawn.

Target: T1, FLJ13397 clone-derived protein (CARP) (Homo sapiens, UniProt Q9H8M7)
T1 construct: A human full-length cDNA clone was expressed as a protein with an N-terminal His tag; His tag (pDEST17 Gateway vector) (N); made in house; host or cells: Escherichia coli BL21star(DE3)pLysS
T1 sequence (Q9H8M7 1-445): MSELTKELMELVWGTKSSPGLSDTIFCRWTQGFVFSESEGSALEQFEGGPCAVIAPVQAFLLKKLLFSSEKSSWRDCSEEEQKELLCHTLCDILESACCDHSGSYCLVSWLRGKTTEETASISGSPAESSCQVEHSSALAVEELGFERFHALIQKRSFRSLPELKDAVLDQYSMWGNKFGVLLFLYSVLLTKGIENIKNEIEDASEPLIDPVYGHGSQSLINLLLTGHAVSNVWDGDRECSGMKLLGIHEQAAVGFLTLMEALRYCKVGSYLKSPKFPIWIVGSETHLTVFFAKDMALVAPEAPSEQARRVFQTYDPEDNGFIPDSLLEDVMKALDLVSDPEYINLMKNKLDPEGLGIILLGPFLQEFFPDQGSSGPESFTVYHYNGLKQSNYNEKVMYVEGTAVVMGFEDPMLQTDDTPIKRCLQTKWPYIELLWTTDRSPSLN
Experiment: SEC/MS (size exclusion chromatography / mass analysis) interaction analysis between FLJ13397 clone-derived protein and compounds
Type: binding
Settings: for interaction with the FLJ13397-expressed protein (judgement): judged from increase of spectrum intensity with doses of compound and protein
Procedure: BP-reaction was performed on human full-length cDNA clone and the cloning vector Gateway pDONR201 by the PCR cloning method using the Invitrogen Gateway system to yield an entry clone. LR-reaction was performed on this entry clone with the destination vector pDEST17 (Gateway System) and LR Clonase at 25° C. for 60 minutes to yield an expression plasmid. Escherichia coli competent cell BL21star(DE3)pLysS were transformed with this expression plasmid, a clone incorporating the expression vector was selected, and a frozen stock was prepared. The transformant was inoculated into LB medium and precultured, after which it was transferred into SB medium and cultured to induce the expression by IPTG, and the cells were stored frozen.
A human full-length cDNA clone was expressed as a protein with an N-terminal His tag. This clone was purified using BioRobot 8000 (Qiagen) or ACTA Crystal (Amersham). […] In the purification with ACTA Crystal, affinity purification using a HisTrap HP column was followed by gel filtration purification using the Gel Filtration Column HiLoad 16/60 or a 10/30 Superdex 75 prep grade column. The purified fraction was used for interaction analysis after being subjected to SDS-PAGE to verify the estimated molecular weight and purity.
To analyze the interactions between commonly used drugs and proteins expressed from human full-length cDNA clones while keeping both the proteins and the compounds in non-modified, non-immobilized state, size exclusion chromatography (SEC) and mass analysis were used in combination (FIGS. 1 and 2). The specific procedures are shown below.
The compound-protein mixture prepared in step 1 was subjected to chromatography using an SEC column, the compound and the protein were separated by SEC, and the bound compound or compound that interacted with the protein in the protein fraction was analyzed using a mass analyzer.
Protein concentrations were measured using BCA Protein Assay (PIERCE), in consideration of the purity calculated by SDS-PAGE.
Mass analysis was performed using LCQ DECA XP (Thermoelectron) or Q-TOFmicro (Micromass), equipped with an ESI probe. The LC pump used was Agilent 1100 (Yokogawa Analytical Systems), and the autosampler used was HTC-PAL (CTC Analytics) equipped with a cooling stacker.
In the SEC method using a 384-well spin column, Unifilter 100 (Whatman), packed with 10 μL (dry volume) of Bio-Gel P6 (BIO-RAD) and swollen with milliQ water, was used as the SEC column. […] The SEC spin column was mounted on an acetonitrile-aliquoted 384-well U-bottom plate and centrifuged; the SEC spin column filtrate, which is a protein fraction, was retrieved in 50% acetonitrile. The protein precipitate produced by the acetonitrile was removed via centrifugation and filtration for protein removal; the resulting filtrate was concentrated by centrifugation and re-dissolved in 10 μL of 50% methanol to obtain a mass analysis sample. The mobile phase supplied to the mass analyzer was 0.1% formic acid/50% methanol solution in the positive ion mode, and 0.1% ammonia/50% methanol solution in the negative ion mode; these mobile phases were used at a flow rate of 40 μL/min. 2-μL of mass analysis samples were injected using an autosampler at 2-Minute intervals; the mass spectral intensity of the compound was measured to obtain the spectral intensity of the pharmaceutical compound contained in the SEC spin column filtrate (protein fraction eluted from SEC).

[1] = compound 1 μM, protein 0 μM (protein-free reference)
[2] = compound 1 μM, protein 23.75 μM
[3] = compound 10 μM, protein 0 μM (protein-free reference)
[4] = compound 10 μM, protein 23.75 μM
[5] = compound 10 μM, protein 47.5 μM
[6] = compound 100 μM, protein 0 μM (protein-free reference)
[7] = compound 100 μM, protein 23.75 μM
[8] = compound 100 μM, protein 47.5 μM
[9] = compound 250 μM, protein 0 μM (protein-free reference)
[10] = compound 250 μM, protein 23.75 μM
[11] = compound 250 μM, protein 47.5 μM

Row | Structure (SMILES) | spectrum intensity of the extracted mass range (compound in SEC spin column filtrate) [1] | spectrum intensity of the extracted mass range (compound in SEC spin column filtrate) [2] | spectrum intensity of the extracted mass range (compound in SEC spin column filtrate) (compound 1 μM, protein 47.5 μM) | spectrum intensity of the extracted mass range (compound in SEC spin column filtrate) [3] | spectrum intensity of the extracted mass range (compound in SEC spin column filtrate) [4] | spectrum intensity of the extracted mass range (compound in SEC spin column filtrate) [5] | spectrum intensity of the extracted mass range (compound in SEC spin column filtrate) [6] | spectrum intensity of the extracted mass range (compound in SEC spin column filtrate) [7] | spectrum intensity of the extracted mass range (compound in SEC spin column filtrate) [8] | spectrum intensity of the extracted mass range (compound in SEC spin column filtrate) [9] | spectrum intensity of the extracted mass range (compound in SEC spin column filtrate) [10] | spectrum intensity of the extracted mass range (compound in SEC spin column filtrate) [11] | interaction with the FLJ13397-expressed protein (judgement)
1 | COc1ccc(CCN2CCC(Nc3nc4ccccc4n3Cc3ccc(F)cc3)CC2)cc1 [Astemizole] | 12239048 | 16006165 | 18099237 | 13557249 | 118520633 | 36678174 | 210085727 | 1213216132 | 2237504347 | 710392964 | 1027353172 | 2019252410 | concentration-dependent interaction
2 | CCC[S+]([O-])c1ccc2[nH]c(NC(=O)OC)nc2c1 (centres unmarked) [Albendazole Sulfoxide] | 1514429 | 1280086 | 1361540 | 11869270 | 13449119 | 14241157 | 125971079 | 208777846 | 241218904 | 460535649 | 532900104 | 372564422 | –
3 | CCCS(=O)(=O)c1ccc2nc(NC(=O)OC)[nH]c2c1 [Albendazole Sulfone] | 1342766 | 1155288 | 761260 | 5960539 | 5481616 | 5089101 | 94575228 | 149841728 | 131428354 | 66281031 | 280956724 | 328407687 | –
4 | CC[C@@H](C(=O)[C@@H](C)[C@@H](O)[C@H](C)CCc1ccc(C)c(O)c1C(=O)O)[C@H]1O[C@](CC)([C@H]2CC[C@](O)(CC)[C@H](C)O2)C[C@@H]1C [Lasalocid sodium salt] | 9674294 | 11601595 | 10467838 | 13154726 | 20062681 | 46504126 | 945932706 | 2538387120 | 3226817361 | 2174989976 | 9287976762 | 9802098210 | –
5 | CCCSc1ccc2nc(NC(=O)OC)[nH]c2c1 [Albendazole] | 99130 | 290428 | 247973 | 25263 | 1117765 | 603904 | 221630 | 6713076 | 3946588 | 151791 | 18185332 | 55508710 | –
6 | CC(C)(C)c1ccc(C(O)CCCN2CCC(C(O)(c3ccccc3)c3ccccc3)CC2)cc1 (centres unmarked) [Terfenadine] | 1817431 | 1889743 | 1281933 | 2641416 | 9434699 | 8393491 | 241452949 | 175843248 | 549040113 | 644365611 | 1389061661 | 1700398168 | concentration-dependent interaction
7 | CCCS(=O)(=O)c1ccc2[nH]c(N)nc2c1 [2-Amino-5-N-Propylsulphonylbenzimidazole, 2-Amino-5-N-propylsulphonylbenzimidazole] | 825049 | 360734 | 484482 | 1750199 | 1437041 | 1664928 | 36160236 | 53411123 | 52719227 | 91113992 | 98334673 | 159174682 | –
